In patent US12214036B2, “Combination therapy comprising AXL/MER and PD-1/PD-L1 inhibitors” (Incyte Corporation, priority 2020, dated 2025):

Columns and labels:
TYRO3 = biological target: T1, TYRO3 (Homo sapiens, UniProt Q06418); test: TR-FRET kinase assay, TYRO3; format: biochemical
T1 construct: recombinant phosphorylated forms of the kinase domains for AXL, MER and TYRO3; purchased Life Technologies PR7480A
T1 sequence (Q06418 518-790 limits assumed): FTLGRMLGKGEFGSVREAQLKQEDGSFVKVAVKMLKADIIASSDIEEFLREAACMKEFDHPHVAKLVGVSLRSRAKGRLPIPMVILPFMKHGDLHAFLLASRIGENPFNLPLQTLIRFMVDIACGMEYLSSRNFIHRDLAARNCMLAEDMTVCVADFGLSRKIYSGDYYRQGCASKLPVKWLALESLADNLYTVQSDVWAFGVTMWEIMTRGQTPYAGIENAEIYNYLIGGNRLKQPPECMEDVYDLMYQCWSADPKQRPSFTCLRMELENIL
Procedure: The biochemical potency of Compound 1 to inhibit the enzymatic activity of TAM family members was investigated by TR-FRET assays using recombinant phosphorylated forms of the kinase domains for AXL, MER and TYRO3.
Phospho-AXL (pAXL), cMER and Tyro3 kinase activities were measured by time-resolved fluorescence energy transfer (TR-FRET) assays. Autophosphorylation of AXL was carried out before the kinase assay by incubating the recombinant AXL protein (ThermoFisher Scientific; #PV4275) in buffer containing 50 mM Tris, pH 7.5, 0.2 mg/mL AXL, 5 mM ATP, 20 mM MgCl2 and 2 mM dithiothreitol (DTT) at room temperature for 1 hour. The kinase assay buffer contained 50 mM HEPES, pH 7.5, 10 mM MgCl2, 1 mM EGTA, 0.01% NP-40 and 2 mM DTT. Enzyme solutions of 0.69 nM phospho-AXL, or 0.088 nM cMER (Carna Biosciences, Kobe, Japan; #08-108) or 0.137 nM TYRO3 (Life Technologies, PR7480A) were prepared in assay buffer. […] The plate was incubated for 30 minutes at room temperature, and homogenous time resolved fluorescence (HTRF) signal was measured on a PheraStar FS plate reader (BMG Labtech, Ortenberg, Germany). Percent inhibition was calculated for each concentration, and half maximal inhibitory concentration (IC50) value was generated from curve fitting with GraphPad Prism software (San Diego, Calif.).

AXL = biological target: T2, AXL (Homo sapiens, UniProt P30530); test: pAXL inhibition assay in H1299 cells (ELISA); format: cell-based; conditions: rhGAS6 stimulation, N=19 (FIG. 2)
T2 construct: tumor cell lines expressing high levels of endogenous AXL; endogenous in cells; host or cells: H1299
T2 sequence (P30530 26-894): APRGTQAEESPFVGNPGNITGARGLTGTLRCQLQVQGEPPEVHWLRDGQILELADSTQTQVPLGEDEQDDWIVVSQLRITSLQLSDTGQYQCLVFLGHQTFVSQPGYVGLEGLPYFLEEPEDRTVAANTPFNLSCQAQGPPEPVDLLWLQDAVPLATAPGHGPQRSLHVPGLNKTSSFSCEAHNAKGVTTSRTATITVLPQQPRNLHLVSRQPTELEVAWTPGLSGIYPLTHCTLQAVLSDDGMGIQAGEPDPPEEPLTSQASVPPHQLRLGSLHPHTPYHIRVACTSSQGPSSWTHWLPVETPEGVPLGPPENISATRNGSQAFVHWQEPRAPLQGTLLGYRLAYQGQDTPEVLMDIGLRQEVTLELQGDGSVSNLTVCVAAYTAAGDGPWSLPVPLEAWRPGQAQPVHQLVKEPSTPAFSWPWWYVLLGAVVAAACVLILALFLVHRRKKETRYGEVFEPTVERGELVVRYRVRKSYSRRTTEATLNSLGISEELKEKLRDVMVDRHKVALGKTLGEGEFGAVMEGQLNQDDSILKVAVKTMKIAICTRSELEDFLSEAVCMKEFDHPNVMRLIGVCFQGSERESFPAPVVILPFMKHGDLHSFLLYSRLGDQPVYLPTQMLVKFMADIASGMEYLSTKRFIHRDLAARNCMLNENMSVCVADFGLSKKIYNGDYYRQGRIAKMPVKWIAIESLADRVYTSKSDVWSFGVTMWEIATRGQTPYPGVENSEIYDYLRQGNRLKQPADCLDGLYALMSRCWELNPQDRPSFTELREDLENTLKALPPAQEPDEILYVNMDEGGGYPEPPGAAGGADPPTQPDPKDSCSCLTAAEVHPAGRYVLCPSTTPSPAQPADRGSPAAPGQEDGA
Procedure: The ability of Compound 1 to modulate AXL activity was evaluated in tumor cell lines expressing high levels of endogenous AXL.
H1299 cells were plated (30,000 cells/well) in 96-well tissue-culture plates (Costar, Corning Incorporated, Corning, N.Y.) and incubated overnight at 37° C. with 5% CO2. Compound 1 at an appropriate concentration was added and incubated for 1 hour at 37° C. with 5% CO2. rhGAS6 (R&D Systems, Minneapolis, Minn.; #885-GSB) was added at 1 μg/mL to each well, and plates were incubated at 37° C. with 5% CO2 for 15 minutes. Cells were harvested and lysed in 110 μL of ice-cold lysis buffer (Cell Signaling Technology, Danvers, Mass.; #9803) with protease and phosphatase inhibitors (ThermoFisher Scientific; #78446) for 1 hour on ice and stored at −80° C. for ELISA. ELISA plates were prepared by incubating Greiner lumitrac high-binding plates with 8 μg/mL of anti-AXL antibody (R&D Systems; MAB154) overnight at room temperature. The plates were washed and blocked with phosphate buffered saline (PBS) with 0.1% BSA. Cell lysates were loaded onto ELISA plates and incubated 2 hours at room temperature. […] The plates were gently shaken for 15 minutes at room temperature and read on the PheraStar (BMG Labtech). […]

SMILES: CC(C)C(=O)N1CCC(c2cc(-c3ccc(NC(=O)c4cn(C(C)C)c(=O)n(-c5ccccn5)c4=O)cc3)c3c(N)ncnn23)CC1 [Compound 1, N-(4-(4-Amino-7-(1-isobutyrylpiperidin-4-yl)pyrrolo[1,2-f][1,2,4]triazin-5-yl)phenyl)-1-isopropyl-2,4-dioxo-3-(pyridin-2-yl)-1,2,3,4-tetrahydropyrimidine-5-carboxamide]
- IC50 (TYRO3; average from multiple lots, n=25, read-out: IC50 against TYRO3): 0.101 ± 0.027 µM
- selectivity over TYRO3 (TYRO3; biochemical): approximately 30 fold
- IC50 (AXL): 0.0018 ± 0.00063 µM
